According to publication PMC7046683 (Frontiers in Oncology, 2020):
Where two headings read alike, the source gives them in different places.

Tests used:
[1] = Blood levels and metabolic ratios of tamoxifen and its metabolites after two tamoxifen injections, with saline or morphine (LC-MS/MS); conditions: for Change of blood concentration, second vs first tamoxifen injection: saline co-injections
Description: Experiments were performed with 11- to 29-week-old female C57BL/6J mice (23 ± 4 g; Charles River, L'Arbresle, France). Animals were housed according to a 12-h light–dark cycle, at a temperature of 22°C ± 2°C and provided with food and water ad libitum. All procedures were performed in accordance with European directives (2010/63/EU) and were approved by the regional ethics committee and the French Ministry of Agriculture (license no. APAFIS#16827-2018092113192911 v4 to YG).
Statistical analysis was performed using GraphPad Prism 6 Software. […] Groups were compared using multiple t-tests.

[2] = 4OH-tamoxifen glucuronidation assay in liver microsomes, with or without morphine; assay type: in vitro ADME; conditions: male, C57/BL6J, mouse
[3] = read-out: Km for morphine glucuronidation; mice; cited from earlier work
[4] = humans; cited from earlier work
[5] = mice; cited from earlier work
[6] = tamoxifen 10 mg/kg i.p. at 0 and 48 h
[7] = three i.p. injections of morphine 10 mg/kg at 0, 1 and 2 h

**Q.** With CC/C(=C(\c1ccc(OCCN(C)C)cc1)c1ccc(O[C@H]2O[C@@H](C(=O)O)[C@H](O)[C@@H](O)[C@@H]2O)cc1)c1ccccc1 [4OH-tamoxifen-glucuronide] as the molecule, how does the “Change of blood concentration, second vs first tamoxifen injection” value [1, 6] read?
**A.** significant increase

**Q.** With CC/C(=C(\c1ccc(O)cc1)c1ccc(OCCN(C)C)cc1)c1ccccc1 [4OH-tamoxifen] as the molecule, how does the Km at 20 s [2] read?
**A.** 68 µM

**Q.** Which “Time at which the highest blood concentration was reached” value [7] does the source give for CN1CC[C@]23c4c5ccc(O[C@@H]6O[C@H](C(=O)O)[C@@H](O)[C@H](O)[C@H]6O)c4O[C@H]2[C@@H](O)C=C[C@H]3[C@H]1C5 [M3G, morphine-3-glucuronide] here?
**A.** 2 h

**Q.** And the “Highest concentration in the blood” value (three i.p. injections of morphine 10 mg/kg at 0, 1 and 2 h, mean ± SEM)?
**A.** 9,773 ± 1,274 pmol/ml

**Q.** Which “Change of blood concentration, second vs first tamoxifen injection” value [1, 6] does the source give for CC/C(=C(\c1ccccc1)c1ccc(OCCNC)cc1)c1ccccc1 [N-desmethyltamoxifen] here?
**A.** significant increase

**Q.** And the “Change of blood concentration after tamoxifen + morphine vs first injection of tamoxifen alone” value ([1]; tamoxifen 10 mg/kg i.p. at 0 and 48 h, morphine 10 mg/kg i.p. at 48, 49 and 50 h)?
**A.** Only a tendency

**Q.** And the “N-desmethyltamoxifen/tamoxifen ratio after morphine” value ([1]; tamoxifen + morphine 3 x 10 mg/kg i.p.)?
**A.** not altered

**Q.** What about the “N-desmethyltamoxifen/tamoxifen ratio, second vs first tamoxifen injection” value ([1]; tamoxifen twice, saline) of the same molecule?
**A.** no difference

**Q.** Which results are given for CC/C(=C(/c1ccc(OCCNC)cc1)c1ccc(O[C@@H]2O[C@H](C(=O)O)[C@@H](O)[C@H](O)[C@H]2O)cc1)c1ccccc1 [endoxifen-glucuronide]?
**A.** Change of blood concentration, second vs first tamoxifen injection [1, 6]: did not vary significantly; Increase of endoxifen-glucuronide/endoxifen ratio, second vs first tamoxifen injection ([1]; tamoxifen 10 mg/kg i.p. twice, saline, t = 2 h): 3 fold

**Q.** Which Km [3] does the source give for CN1CC[C@]23c4c5ccc(O)c4O[C@H]2[C@@H](O)C=C[C@H]3[C@H]1C5 [morphine, reference compound] here?
**A.** 500 µM

**Q.** And the “Presence in blood after 8 h” value (three i.p. injections of morphine 10 mg/kg)?
**A.** still present

**Q.** What about the “Time at which the highest blood concentration was reached” value [7] of the same molecule?
**A.** 2 h

**Q.** Which Half-life [4] does the source give for CC/C(=C(\c1ccccc1)c1ccc(OCCN(C)C)cc1)c1ccccc1 [tamoxifen] here?
**A.** 27 h

**Q.** And the Half-life [5]?
**A.** 6.8 h
